Values quoted from earlier work as cited in patent publication US10188772B2, “Drug delivery medical device” (Micell Technologies, Inc., priority 2012, dated 2019).

Target: FKBP12 (Homo sapiens, UniProt P62942)
Sequence (P62942 whole entry, species assumed): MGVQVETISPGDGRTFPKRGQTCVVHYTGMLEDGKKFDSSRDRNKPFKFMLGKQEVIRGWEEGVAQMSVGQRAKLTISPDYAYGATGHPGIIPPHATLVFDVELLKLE

Row | SMILES | FKBP12 binding
1 | CO[C@H]1C[C@@H]2CC[C@@H](C)[C@@](O)(O2)C(=O)C(=O)N2CCCC[C@H]2C(=O)O[C@H]([C@H](C)C[C@@H]2CC[C@@H](OC(=O)C(C)(CO)CO)[C@H](OC)C2)CC(=O)[C@H](C)/C=C(\C)[C@@H](O)[C@@H](OC)C(=O)[C@H](C)C[C@H](C)/C=C/C=C/C=C/1C [Temsirolimus, 42-[3-hydroxy-2-(hydroxymethyl)-2-methylpropanoate]rapamycin] | about the same as Sirolimus
2 | CO[C@H]1C[C@@H]2CC[C@@H](C)[C@@](O)(O2)C(=O)C(=O)N2CCCC[C@H]2C(=O)O[C@H]([C@H](C)C[C@@H]2CC[C@H](n3cnnn3)[C@H](OC)C2)CC(=O)[C@H](C)/C=C(\C)[C@@H](O)[C@@H](OC)C(=O)[C@H](C)C[C@H](C)/C=C/C=C/C=C/1C [Zotarolimus] | 2.0 to 3.2 nM
3 | C=CC[C@@H]1/C=C(\C)C[C@H](C)C[C@H](OC)[C@H]2O[C@@](O)(C(=O)C(=O)N3CCCC[C@H]3C(=O)O[C@H](/C(C)=C/[C@@H]3CC[C@@H](O)[C@H](OC)C3)[C@H](C)[C@@H](O)CC1=O)[C@H](C)C[C@@H]2OC [Tacrolimus] | 0.2 to 0.4 nM
4 | CC[C@@H]1/C=C(\C)C[C@H](C)C[C@H](OC)[C@H]2O[C@@](O)(C(=O)C(=O)N3CCCC[C@H]3C(=O)O[C@H](/C(C)=C/[C@@H]3CC[C@H](Cl)[C@H](OC)C3)[C@H](C)[C@@H](O)CC1=O)[C@H](C)C[C@@H]2OC [Pimecrolimus] | about 1.2 nM
5 | CO[C@H]1C[C@@H]2CC[C@@H](C)[C@@](O)(O2)C(=O)C(=O)N2CCCC[C@H]2C(=O)O[C@H]([C@H](C)C[C@@H]2CC[C@@H](OCCO)[C@H](OC)C2)CC(=O)[C@H](C)/C=C(\C)[C@@H](O)[C@@H](OC)C(=O)[C@H](C)C[C@H](C)/C=C/C=C/C=C/1C [Everolimus, 40-O-(2-Hydroxyethyl)rapamycin] | 1.8 to 2.6 nM
